From PMC7948503, “Optimization of a peptide ligand for the adhesion GPCR ADGRG2 provides a potent tool to explore receptor biology” (The Journal of Biological Chemistry, 2020) come the findings set out here.

One test has as its target T1, ADGRG2-FL (Mus musculus, UniProt Q8CJ12).
T1 construct: Wildtype ADGRG2 full-length (ADGRG2-FL) was cloned from mouse total cDNA libraries; expressed in transfected cells; host or cells: HEK293
Description: GloSensor cAMP assay, HEK293 transfected with ADGRG2-FL. In kind it is cell-based. The following applies: for p15 activity after alanine substitution (cAMP level): alanine scanning, 100 μM peptide, HEK293 ADGRG2-FL, Glosensor, compared with p15-WT, repeated six times; for EC50: HEK293 transfected with ADGRG2-FL, increasing peptide concentration, cAMP Glosensor, repeated 6 times. The source says:
(§1) Wildtype ADGRG2 full-length (ADGRG2-FL) was cloned from mouse total cDNA libraries using the following primers: forward, […]; reverse, […], and then ADGRG2-FL, ADGRG2 C-terminal truncation mutant (ADGRG2-β), and ADGRG2-ΔGPS-β (the entire ECD of ADGRG2 was deleted) were subcloned into the pcDNA3.1 expression vector. The ADGRG2-ΔGPS-β mutants (T610A, Y611A, C614A, S661A, W662A, I663A, L665A, Y666A，N667A, F671A, L679A, L683A, I730A, V731A, F741A, F747A, W757A, I758A, N759A, S760A, V762A, F764A, Y765A, V768A, V769A, F772A, V774A, W824A, F826A, F828A, F829A, V834A, V836A, F838A, M839A, I844A, F845A) were generated using a QuikChange Mutagenesis Kit (Stratagene). All mutations were verified by DNA sequencing.
(§2) Human embryonic kidney 293 (HEK293) cells were maintained in Dulbecco’s modified Eagle’s medium supplemented with 10% fetal bovine serum, penicillin (100 IU/ml), and streptomycin (100 μg/ml) as described ([6], [38]). For receptor or other protein expression, plasmids carrying the desired genes were transfected into cells using Lipofectamine 2000 (Invitrogen).
(§3) The Glosensor cAMP assay was performed as described ([6], [39], [40]). HEK293 cells were transfected with the GloSensor plasmid and the desired expression plasmids in 24-well dishes. Twenty-four hours after transfection, the cells were plated on 96-well plates at a cell density of 20,000 cells/well. The cells were maintained in Dulbecco’s modified Eagle’s medium for another 24 h, washed with PBS, and then incubated with 100 μl of solution containing 10% fetal bovine serum, 2% (v/v) GloSensor cAMP reagent, and 88% CO2-independent medium in each well for 2 h. The cAMP signal was examined using a luminescence counter (Mithras LB 940).
Background: Changes in cAMP serve as a functional read-out for many G protein-coupled receptors.

Another test relates to ADGRG2. The experiment in a line: CalfluxVTN Ca2+ assay. In kind it is cell-based, mouse. As to conditions: Gq/11 selective inhibitor. The procedure:
For the Ca^2+ assays, HEK293 cells in 24-well dishes were cotransfected with plasmids encoding ADGRG2 or its mutants, CalfluxVTN constructs were used at a 6:1 ratio. Empty vector pcDNA3.1(+) was used to normalize the total amount of transfected plasmid DNA. The transfection and CalfluxVTN Ca^2+ assays were performed as previously reported ([28], [29], [41]) with minor modifications. In brief, 24 h post transfection, cells were harvested and distributed in 96-well flat-bottomed white microplates. After another 24 h, the cells were processed accordingly and then were added with the Nluc substrate furimazine (5 μM). The BRET signal was calculated by measuring the ratio of the light emitted by the Venus reporter (535 nm) relative to light emitted by the Nluc reporter (475 nm). The average baseline value (basal BRET ratio) recorded prior to agonist stimulation was subtracted from the experimental BRET signal values to obtain the ΔBRET ratio.

Another test addresses T2, ADGRG2-ΔGPS-β (Mus musculus, UniProt Q8CJ12).
T2 construct: the entire ECD (including the entire GPS motif) was removed (ADGRG2-ΔGPS-β); expressed in transfected cells; host or cells: HEK293
The experiment in a line: GloSensor cAMP assay, HEK293 transfected with ADGRG2-ΔGPS-β. In kind it is cell-based. The following applies: cAMP Glosensor; for EC50: HEK293 transfected with ADGRG2-ΔGPS-β, increasing peptide concentration, repeated six times; for EC50 compared with wildtype p15 or other mutants: concentration-response curves, ADGRG2-ΔGPS-β.
Text: as §1, §2, §3

Test [1] addresses Rluc-ADGRG2-ΔGPS-β wildtype (mouse).

Starred links: 1 amine or outer side, 2 acyl side, 3 side chain; linkers in the order of their positions; H or OH if unused. Positions of bridges follow the written chain, without caps; N, C: chain ends. Non-standard residues stand in square brackets, D forms with d. Residues, ends and D or L forms follow the SMILES beside them. No end group written: not given here. X1 = CC(=O)NC(C(=O)OC(C(C)C)C(N[*:1])C(=O)[*:2])C(O)C(C)C; Phe(4-Me) = Cc1ccc(C[C@H](N)C(=O)O)cc1; 1Nal = N[C@@H](Cc1cccc2ccccc12)C(=O)O; PhLac = O=C(O)[CH](O)Cc1ccccc1; NMeT = CN[CH](C(=O)O)[CH](C)O; NMeA = CN[CH](C)C(=O)O; NMeDha = C=C(NC)C(=O)O

T1 sequence (Q8CJ12 38-995 isoform Q8CJ12-3 limits assumed): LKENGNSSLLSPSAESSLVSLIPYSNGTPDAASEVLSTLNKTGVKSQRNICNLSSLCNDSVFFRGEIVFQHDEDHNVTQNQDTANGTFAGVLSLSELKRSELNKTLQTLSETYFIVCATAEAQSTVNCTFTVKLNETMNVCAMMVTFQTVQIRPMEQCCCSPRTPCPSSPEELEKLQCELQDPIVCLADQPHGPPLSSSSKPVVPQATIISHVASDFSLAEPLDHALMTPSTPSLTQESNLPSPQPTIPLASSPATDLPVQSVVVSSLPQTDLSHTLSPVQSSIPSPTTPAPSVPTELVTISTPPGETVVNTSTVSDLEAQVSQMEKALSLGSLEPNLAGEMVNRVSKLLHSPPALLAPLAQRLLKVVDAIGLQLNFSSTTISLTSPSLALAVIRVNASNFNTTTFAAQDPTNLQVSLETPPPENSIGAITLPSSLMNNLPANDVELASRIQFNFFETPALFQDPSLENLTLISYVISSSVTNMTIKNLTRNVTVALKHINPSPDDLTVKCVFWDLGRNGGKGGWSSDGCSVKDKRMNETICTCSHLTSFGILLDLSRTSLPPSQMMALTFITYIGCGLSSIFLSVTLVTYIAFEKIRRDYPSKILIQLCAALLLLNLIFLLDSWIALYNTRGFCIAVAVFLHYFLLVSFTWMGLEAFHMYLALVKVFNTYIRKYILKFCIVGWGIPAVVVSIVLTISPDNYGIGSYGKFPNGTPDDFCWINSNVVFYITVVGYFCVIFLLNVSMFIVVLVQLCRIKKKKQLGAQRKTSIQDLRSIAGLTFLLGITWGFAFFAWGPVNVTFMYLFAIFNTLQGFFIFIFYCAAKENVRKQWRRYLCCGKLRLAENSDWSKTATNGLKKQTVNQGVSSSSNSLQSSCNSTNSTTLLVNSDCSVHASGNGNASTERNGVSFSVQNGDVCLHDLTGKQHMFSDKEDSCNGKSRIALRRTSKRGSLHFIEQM
T2 sequence (Q8CJ12 618-1009 limits assumed, stated change not applied): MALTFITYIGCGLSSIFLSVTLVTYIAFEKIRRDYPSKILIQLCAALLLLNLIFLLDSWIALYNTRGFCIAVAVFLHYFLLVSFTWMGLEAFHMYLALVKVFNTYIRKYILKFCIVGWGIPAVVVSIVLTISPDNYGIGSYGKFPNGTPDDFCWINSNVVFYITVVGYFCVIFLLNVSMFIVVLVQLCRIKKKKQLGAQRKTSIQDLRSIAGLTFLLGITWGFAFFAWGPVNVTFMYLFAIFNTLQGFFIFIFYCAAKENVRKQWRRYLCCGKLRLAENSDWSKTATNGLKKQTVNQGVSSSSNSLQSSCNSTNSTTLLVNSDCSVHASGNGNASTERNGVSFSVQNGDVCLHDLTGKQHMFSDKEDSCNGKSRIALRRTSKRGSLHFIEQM

On to “R11A: p15 alanine-scan mutant R11A (TSFGILLDLSATSLP)”, for which the “p15 activity after alanine substitution (cAMP level)” value with ADGRG2-FL is given as “greatly impaired p15 activity”. Take `C=C1C(=O)NC(C)C(=O)N(C)C(C)C(=O)NC(C(OC(=O)C(NC(C)=O)C(O)C(C)C)C(C)C)C(=O)N(C)C(C(C)OC)C(=O)OC(C)C(NC(C)=O)C(=O)OC(Cc2ccccc2)C(=O)N1C` (centres unmarked) [YM-254890] (Ac-T[PhLac][NMeDha]A[NMeA][X1][NMeT](Me); ester 1-C; configuration not given here): in the test on ADGRG2, the “inhibition of p15-elicited rise in intracellular calcium” value was “inhibited”. A word on the EC50: it is the concentration needed to bring the measured effect to its halfway point. A lower EC50 goes with a more potent agent. In the case of `CC[C@H](C)[C@H](NC(=O)CNC(=O)[C@H](Cc1cccc2ccccc12)NC(=O)[C@H](CO)NC(=O)[C@@H](N)C(C)C)C(=O)N[C@@H](CC(C)C)C(=O)N[C@@H](CC(C)C)C(=O)N[C@@H](CC(=O)O)C(=O)N[C@@H](CC(C)C)C(=O)N[C@@H](CO)C(=O)N[C@@H](CCCNC(=N)N)C(=O)N[C@H](C(=O)N[C@@H](CO)C(=O)N[C@@H](CC(C)C)C(=O)N1CCC[C@H]1C(=O)O)[C@@H](C)O` [T1V/F3(1-Nal)] (H-VS[1Nal]GILLDLSRTSLP-OH), at ADGRG2-ΔGPS-β, the EC50 was 4.7 µM and the “EC50 compared with wildtype p15 or other mutants” value is “significant lower EC50 than other mutants”. `CC[C@H](C)[C@H](NC(=O)CNC(=O)[C@H](Cc1ccc(C)cc1)NC(=O)[C@H](CO)NC(=O)[C@@H](N)[C@@H](C)O)C(=O)N[C@@H](CC(C)C)C(=O)N[C@@H](CC(C)C)C(=O)N[C@@H](CC(=O)O)C(=O)N[C@@H](CC(C)C)C(=O)N[C@@H](CO)C(=O)N[C@@H](CCCNC(=N)N)C(=O)N[C@H](C(=O)N[C@@H](CO)C(=O)N[C@@H](CC(C)C)C(=O)N1CCC[C@H]1C(=O)O)[C@@H](C)O` [F3Phe(4-Me)] (H-TS[Phe(4-Me)]GILLDLSRTSLP-OH): the “EC50 compared with wildtype p15 or other mutants” value on ADGRG2-ΔGPS-β was “lower EC50 value than wildtype p15”.

Take TSFGILLDLSRTSAP [L14A]: at ADGRG2-FL, a half-maximal effect (EC50) was put at 274 µM. As for “TSFGILLDLSRTSLP [p15, reference compound]”, the EC50 came to 175 µM on ADGRG2-FL and 243 µM on ADGRG2-ΔGPS-β. VSFGILLDLSRTSLP [T1V]: on ADGRG2-ΔGPS-β, the “EC50 compared with wildtype p15 or other mutants” value is given as “lower EC50 value than wildtype p15”. In test [1], “FITC-conjugated VPM-p15 (ADGRG2 Stachel peptide p15 T1V/F3Phe(4-Me))” yielded an EC50 of cAMP accumulation (GloSensor assay), HEK293 cells transfected with ADGRG2-ΔGPS-β, increasing concentrations of VPM-p15 (without FITC) of 1.41 µM and a fold change of the EC50 of cAMP accumulation (GloSensor assay) against the wildtype p15 peptide, ADGRG2-ΔGPS-β in HEK293 cells of 170 fold. For the molecule `CC[C@H](C)[C@H](NC(=O)CNC(=O)[C@H](Cc1cccc2ccccc12)NC(=O)[C@H](CO)NC(=O)[C@@H](N)[C@@H](C)O)C(=O)N[C@@H](CC(C)C)C(=O)N[C@@H](CC(C)C)C(=O)N[C@@H](CC(=O)O)C(=O)N[C@@H](CC(C)C)C(=O)N[C@@H](CO)C(=O)N[C@@H](CCCNC(=N)N)C(=O)N[C@H](C(=O)N[C@@H](CO)C(=O)N[C@@H](CC(C)C)C(=O)N1CCC[C@H]1C(=O)O)[C@@H](C)O` [F3(1-Nal)] (H-TS[1Nal]GILLDLSRTSLP-OH), at ADGRG2-ΔGPS-β, the “EC50 compared with wildtype p15 or other mutants” value is “lower EC50 value than wildtype p15”. For “F3A: p15 alanine-scan mutant F3A (TSAGILLDLSRTSLP)”, in the test with ADGRG2-FL, the “p15 activity after alanine substitution (cAMP level)” value is on record as “greatly impaired p15 activity”.

B1: ADGRG2 Stachel peptide p15 T1V (peptide)
peptide: VSFGILLDLSRTSLP
As to B1, in test [1], the cAMP accumulation (GloSensor assay), HEK293 cells transfected with ADGRG2-ΔGPS-β, 100 μM peptide, against wildtype p15 turned out to be 3 fold.
